# Data published in PMC11104609, “Discovery of allosteric regulators with clinical potential to stabilize alpha-L-iduronidase in mucopolysaccharidosis type I” (PLOS ONE, 2024).
# Biological target: T1, IDUA (Homo sapiens, UniProt P35475)
# T1 sequence (P35475 28-653): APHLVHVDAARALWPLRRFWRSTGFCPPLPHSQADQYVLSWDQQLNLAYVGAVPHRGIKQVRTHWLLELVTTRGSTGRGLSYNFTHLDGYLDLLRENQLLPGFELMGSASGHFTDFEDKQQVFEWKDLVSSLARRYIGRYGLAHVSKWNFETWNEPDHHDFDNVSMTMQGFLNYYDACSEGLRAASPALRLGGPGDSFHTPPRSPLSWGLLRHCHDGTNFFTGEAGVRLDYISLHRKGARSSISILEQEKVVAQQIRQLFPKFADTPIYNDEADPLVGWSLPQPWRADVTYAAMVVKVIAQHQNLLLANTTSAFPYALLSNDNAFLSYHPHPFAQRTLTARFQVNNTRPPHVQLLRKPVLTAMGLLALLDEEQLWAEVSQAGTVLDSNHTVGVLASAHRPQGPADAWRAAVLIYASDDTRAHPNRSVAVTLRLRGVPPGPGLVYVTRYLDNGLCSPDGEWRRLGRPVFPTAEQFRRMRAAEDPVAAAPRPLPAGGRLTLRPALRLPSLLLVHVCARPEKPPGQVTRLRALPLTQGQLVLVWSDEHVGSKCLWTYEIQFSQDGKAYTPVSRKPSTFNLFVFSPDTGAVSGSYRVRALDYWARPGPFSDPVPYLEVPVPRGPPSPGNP
# Assay: IDUA enzymatic activity in patient-derived fibroblasts after rhIDUA with or without compound (4-MUI substrate)
# Type: cell-based
# Set-up: Institute of Biotechnology and Biomedicine, Autonomous University of Barcelona (UAB), Bellaterra, Spain
# Method: Fibroblasts derived from Hurler (GM00798) and Hurler/Scheie patients (GM02845, GM00512, GM01898, GM00963) were purchased from Coriell (Camden, NJ). Fibroblasts were cultured in Dulbecco’s modified Eagle’s medium (DMEM, Gibco) supplemented with 10% inactivated fetal bovine serum (FBS, Gibco) and 1% penicillin-streptomycin (Thermo Fisher Scientific, Waltham, MA, USA) (growth medium) at 37 °C under 5% CO2. The effect of the protein and/or compound in enhancing IDUA enzymatic activity was evaluated as follows: The specified patient-derived fibroblasts were seeded at 4x10^4 cells per well in 12-well cell culture plates in growth medium. Subsequently, cells were incubated with indicated dose of rhIDUA (obtained from the Institute of Biotechnology and Biomedicine in the UAB, Bellaterra, Spain) in the absence or presence of the compound #18 (GT-01803) for the specified incubation times at 50 μM. After incubation, cells were washed with PBS and detached using Trypsin-EDTA solution (Sigma Aldrich, St. Louis, MO, USA) to prepare cell pellets. The pellets were stored at -80 °C until activity assays were performed. IDUA activity in cell lysates was measured using 4-methylumbelliferyl IDUA substrate (4-MUI, Glycosynth Ltd., #44076, Warrington, UK). Briefly, lysates were resuspended in 120 μL of 0.9% NaCl containing 0.01% Triton X-100 lysis buffer to promote membrane disruption. Next, the cell suspension was sonicated and centrifuged to pellet insoluble materials. Then, 25 μL of lysates were mixed with 25 μL of 200 μM 4-MUI substrate solution in 0.4 M sodium formate, pH 3.5, 0.2% Triton X-100 buffer and incubated for 60 mins at 37 °C. The reaction was stopped by adding 200 μL of 0.5 M Glycine/0.3 M NaOH buffer, pH 10. The liberated 4-methylumbelliferone (4-MU) was measured on a Glomax® Discover microplate reader with excitation at 340 nm and emission at 460 nm. Protein quantification was determined using Pierce BCA Protein Assay Kit (Thermo Fisher Scientific, Waltham, MA, USA). Measurements were interpolated in a 4-MU standard curve and normalised by protein quantity.
# For Fig 6A, rhIDUA concentrations of 0.187, 0.375 and 1.25 nM were tested in GM02845 fibroblasts over a 96-hour period, both in the presence and absence of the compound #18 (GT-01803) at 50 μM. In Fig 6B, 1.25 nM of rhIDUA was evaluated in GM02845, GM00798, GM00512, and GM00963 fibroblasts for 96h, with and without the compound #18 (GT-01803) at 50 μM. In Fig 6C, a concentration of 1.25 nM of the protein was applied to fibroblasts for 4, 8, 24 and 96h, with and without the compound #18 (GT-01803) at 50 μM.
# [1] = rhIDUA 1.25 nM + GT-01803 50 μM, GM02845 fibroblasts (Fig 6C)
structure (smiles),measurement,setting,value
CCN(CC(=O)Nc1c(Cl)cccc1Cl)Cc1nc2ccsc2c(=O)[nH]1 [GT-01803],IDUA cell activity compared with rhIDUA alone,"co-administration of rhIDUA (0.187, 0.375, 1.25 nM) with 50 μM GT-01803, GM02845, 96 h, p ≤ 0.0001",marked dose-dependent increase
same,mean IDUA cell activity at 96h,[1],104.3 nmol/h/mg
same,"mean difference in IDUA cell activity at 96h, rhIDUA + compound vs rhIDUA alone",[1],28.65 ± 3.106 nmol/h/mg
